Data from US9315491B2 (DEVELOPMENT CENTER FOR BIOTECHNOLOGY, priority 2009, dated 2016).

These compounds were tested against recombinant mTOR (Homo sapiens (Human), UniProt P42345) (assay: mTOR kinase assay (33P incorporation into 4EBP1)). Conditions: compound at 10 μM, 10 μM ATP.
Assay type: biochemical
Procedure, shortened: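 Recombinant human mTOR (50 ng) phosphorylated His-tagged 4EBP1 (300 ng) with 10 μM ATP plus [γ-33P]-ATP in HEPES pH 7.5, MnCl2, EGTA and DTT for 30 min at 30° C. Labelled 4EBP1 was filter-captured and counted. IC50 was derived from eight-point duplicate dilution series.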

Sequence of recombinant mTOR (P42345 1360-2549): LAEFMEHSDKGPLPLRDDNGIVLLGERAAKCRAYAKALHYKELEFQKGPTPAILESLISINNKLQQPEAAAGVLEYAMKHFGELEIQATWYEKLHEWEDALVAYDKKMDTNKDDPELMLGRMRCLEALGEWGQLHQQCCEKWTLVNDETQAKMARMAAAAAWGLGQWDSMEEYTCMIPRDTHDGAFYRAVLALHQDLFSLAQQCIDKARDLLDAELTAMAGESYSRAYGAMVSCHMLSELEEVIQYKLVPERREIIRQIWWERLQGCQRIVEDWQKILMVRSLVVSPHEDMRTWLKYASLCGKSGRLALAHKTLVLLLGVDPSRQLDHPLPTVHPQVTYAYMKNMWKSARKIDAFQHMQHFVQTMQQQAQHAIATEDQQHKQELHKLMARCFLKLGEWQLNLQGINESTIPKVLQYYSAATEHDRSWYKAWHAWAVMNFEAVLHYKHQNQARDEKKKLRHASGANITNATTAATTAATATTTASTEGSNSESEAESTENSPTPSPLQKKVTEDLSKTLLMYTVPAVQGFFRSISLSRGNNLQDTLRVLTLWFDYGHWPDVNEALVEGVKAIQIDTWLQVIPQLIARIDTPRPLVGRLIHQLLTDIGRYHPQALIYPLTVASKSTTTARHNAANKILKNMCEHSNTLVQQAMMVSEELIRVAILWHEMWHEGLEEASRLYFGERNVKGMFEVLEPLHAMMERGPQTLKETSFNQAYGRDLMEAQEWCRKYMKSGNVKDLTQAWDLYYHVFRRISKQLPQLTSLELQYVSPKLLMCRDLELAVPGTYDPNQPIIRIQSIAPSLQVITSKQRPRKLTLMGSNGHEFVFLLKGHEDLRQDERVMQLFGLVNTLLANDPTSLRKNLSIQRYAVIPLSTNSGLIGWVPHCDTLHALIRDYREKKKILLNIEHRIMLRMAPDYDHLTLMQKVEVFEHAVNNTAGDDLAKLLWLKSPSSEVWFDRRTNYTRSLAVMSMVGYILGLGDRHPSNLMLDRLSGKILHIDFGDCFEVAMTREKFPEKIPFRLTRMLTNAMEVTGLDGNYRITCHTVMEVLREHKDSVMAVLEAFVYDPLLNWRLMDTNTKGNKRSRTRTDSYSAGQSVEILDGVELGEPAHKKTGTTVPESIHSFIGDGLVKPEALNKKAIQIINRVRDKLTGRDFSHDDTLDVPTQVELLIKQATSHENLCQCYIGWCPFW

inhibition at 10 µM [%] | Compound
100 | CSc1c(-c2ccncc2)nc(-c2ccc(NC(=O)Nc3ccon3)cc2)nc1N1CCOCC1 [MTR-0485, 1-Isoxazol-3-yl-3-[4-(5-methylsulfanyl-4-morpholin-4-yl-6-pyridin-4-yl-pyrimidin-2-yl)-phenyl]-urea]
88 | COc1cnc(-c2ccc(NC(=O)Nc3ccc(NC(C)=O)nc3)cc2)nc1N1CCOCC1 [MTR-0486, N-(5-{3-[4-(5-Methoxy-4-morpholin-4-yl-pyrimidin-2-yl)-phenyl]-ureido}-pyridin-2-yl)-acetamide]
102 | CCOc1c(-c2cccnc2)nc(-c2ccc(NC(=O)Nc3ccncc3)cc2)nc1N1CCOCC1 [MTR-0490, 1-[4-(5-Ethoxy-4-morpholin-4-yl-6-pyridin-3-yl-pyrimidin-2-yl)-phenyl]-3-pyridin-4-yl-urea]
100 | CCOc1c(-c2cccnc2)nc(-c2ccc(NC(=O)Nc3cccnc3)cc2)nc1N1CCOCC1 [MTR-0491, 1-[4-(5-Ethoxy-4-morpholin-4-yl-6-pyridin-3-yl-pyrimidin-2-yl)-phenyl]-3-pyridin-3-yl-urea]
100 | CCOc1c(-c2ccncc2)nc(-c2ccc(NC(=O)Nc3ccncc3)cc2)nc1N1CCOCC1 [MTR-0492, 1-[4-(5-Ethoxy-4-morpholin-4-yl-6-pyridin-4-yl-pyrimidin-2-yl)-phenyl]-3-pyridin-4-yl-urea]
99 | CCOc1c(-c2ccncc2)nc(-c2ccc(NC(=O)Nc3cccnc3)cc2)nc1N1CCOCC1 [MTR-0493, 1-[4-(5-Ethoxy-4-morpholin-4-yl-6-pyridin-4-yl-pyrimidin-2-yl)-phenyl]-3-pyridin-3-yl-urea]
86 | CCOc1c(Cl)nc(-c2ccc(NC(=O)Nc3ccc(N4CCOCC4=O)cc3)cc2)nc1N1CCOCC1 [MTR-0494, 1-[4-(4-Chloro-5-ethoxy-6-morpholin-4-yl-pyrimidin-2-yl)-phenyl]-3-[4-(3-oxo-morpholin-4-yl)-phenyl]-urea]
100 | CCOc1c(-c2ccncc2)nc(-c2ccc(NC(=O)Nc3ccc(N4CCOCC4=O)cc3)cc2)nc1N1CCOCC1 [MTR-0495, 1-[4-(5-Ethoxy-4-morpholin-4-yl-6-pyridin-4-yl-pyrimidin-2-yl)-phenyl]-3-[4-(3-oxo-morpholin-4-yl)-phenyl]-urea]
95 | CCOc1c(-c2cccnc2)nc(-c2ccc(NC(=O)Nc3ccc(N4CCOCC4=O)cc3)cc2)nc1N1CCOCC1 [MTR-0496, 1-[4-(5-Ethoxy-4-morpholin-4-yl-6-pyridin-3-yl-pyrimidin-2-yl)-phenyl]-3-[4-(3-oxo-morpholin-4-yl)-phenyl]-urea]

These compounds were tested against PI3K (p110α/p85α) (Homo sapiens (Human), UniProt P42336) (assay: PI3K HTRF enzyme assay, p110α/p85α). Conditions: read-out: % inhibition @ 500 nM p110α; compound at 500 nM, 10 μM ATP.
Sequence of PI3K (p110α/p85α) (P42336 whole entry, species assumed): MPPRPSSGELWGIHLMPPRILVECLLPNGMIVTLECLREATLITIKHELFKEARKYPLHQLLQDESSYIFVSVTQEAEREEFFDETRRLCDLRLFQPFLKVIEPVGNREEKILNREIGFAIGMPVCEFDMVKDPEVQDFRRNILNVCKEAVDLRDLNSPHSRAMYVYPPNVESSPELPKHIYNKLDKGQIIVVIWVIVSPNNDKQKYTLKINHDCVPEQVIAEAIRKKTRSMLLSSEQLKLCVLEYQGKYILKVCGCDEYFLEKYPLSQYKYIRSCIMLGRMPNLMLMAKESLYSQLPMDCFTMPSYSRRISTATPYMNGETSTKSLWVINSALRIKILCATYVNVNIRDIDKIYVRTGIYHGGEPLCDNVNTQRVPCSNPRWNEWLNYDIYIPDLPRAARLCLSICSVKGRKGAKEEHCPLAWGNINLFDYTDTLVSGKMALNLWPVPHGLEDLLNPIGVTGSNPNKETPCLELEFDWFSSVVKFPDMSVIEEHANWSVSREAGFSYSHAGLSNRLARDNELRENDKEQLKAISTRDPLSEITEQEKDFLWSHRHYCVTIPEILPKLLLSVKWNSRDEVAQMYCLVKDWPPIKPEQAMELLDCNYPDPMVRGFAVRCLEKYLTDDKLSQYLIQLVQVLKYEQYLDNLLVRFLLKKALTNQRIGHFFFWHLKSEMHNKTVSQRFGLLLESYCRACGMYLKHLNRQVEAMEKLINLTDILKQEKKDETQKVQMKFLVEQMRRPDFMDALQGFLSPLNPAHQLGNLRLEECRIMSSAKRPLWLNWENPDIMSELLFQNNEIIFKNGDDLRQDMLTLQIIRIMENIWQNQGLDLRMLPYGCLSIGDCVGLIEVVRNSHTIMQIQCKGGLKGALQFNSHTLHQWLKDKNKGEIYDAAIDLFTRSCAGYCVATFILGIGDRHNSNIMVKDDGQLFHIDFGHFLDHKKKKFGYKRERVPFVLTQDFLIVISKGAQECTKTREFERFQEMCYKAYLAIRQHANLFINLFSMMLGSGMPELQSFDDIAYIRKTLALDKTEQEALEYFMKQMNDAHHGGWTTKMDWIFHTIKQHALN
Sequence of PI3K (p110α/p85α) (P27986 whole entry partner, species assumed): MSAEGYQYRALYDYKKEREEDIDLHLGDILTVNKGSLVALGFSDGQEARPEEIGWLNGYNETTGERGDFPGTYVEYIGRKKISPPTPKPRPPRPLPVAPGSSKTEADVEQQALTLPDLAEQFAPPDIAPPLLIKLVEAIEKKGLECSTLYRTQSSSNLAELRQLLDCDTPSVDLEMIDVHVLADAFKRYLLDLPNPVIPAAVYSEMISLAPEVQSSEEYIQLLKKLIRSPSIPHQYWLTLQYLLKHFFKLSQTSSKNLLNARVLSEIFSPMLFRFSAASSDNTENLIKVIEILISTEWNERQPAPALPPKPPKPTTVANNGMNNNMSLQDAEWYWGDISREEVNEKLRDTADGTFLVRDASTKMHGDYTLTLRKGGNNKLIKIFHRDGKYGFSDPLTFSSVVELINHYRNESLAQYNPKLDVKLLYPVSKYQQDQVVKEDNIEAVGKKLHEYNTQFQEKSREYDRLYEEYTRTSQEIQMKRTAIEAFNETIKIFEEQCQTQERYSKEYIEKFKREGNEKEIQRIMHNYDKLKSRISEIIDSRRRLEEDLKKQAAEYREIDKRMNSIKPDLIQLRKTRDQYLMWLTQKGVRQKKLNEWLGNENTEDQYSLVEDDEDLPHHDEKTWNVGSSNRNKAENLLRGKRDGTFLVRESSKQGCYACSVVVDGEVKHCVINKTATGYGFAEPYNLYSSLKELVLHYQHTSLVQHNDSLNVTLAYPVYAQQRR
Assay type: biochemical
Method: Recombinant PI3K (p110α/p85α) and PI3K (p110β/p85α) were from Millipore. […] Briefly, the compounds of interest dissolved in 100% DMSO were dispensed in all wells, following which the mixture of PIP2 and enzyme was added. PI3K (p110α/p85α) and PI3K (p110β/p85α) enzyme reactions were initiated in the presence of 10 μM and 100 μM ATP, respectively, and incubated for 30 min at room temperature. STOP solution prepared 2 hours prior to use was added to stop reactions, and mixed well. Detection solution prepared 2 hours prior to use was added, and incubated at room temperature for 17 hours in the dark. […] HTRF ration was calculated as follows: […]

inhibition at 0.5 µM [%] | Compound
53.8 | CCOC(=O)c1nc(-c2ccc(NC(=O)Nc3ccccc3)cc2)nc(N2CCOCC2)c1OCC [MTR-0069, 5-Ethoxy-6-morpholin-4-yl-2-[4-(3-phenyl-ureido)-phenyl]-pyrimidine-4-carboxylic acid ethyl ester]
44.8 | CSc1c(Cl)nc(-c2ccc(NC(N)=O)cc2)nc1N1CCOCC1 [MTR-0083, [4-(4-Chloro-5-methylsulfanyl-6-morpholin-4-yl-pyrimidin-2-yl)-phenyl]-urea]
49.1 | CCOc1c(C(=O)N2CCOCC2)nc(-c2ccc(NC(=O)Nc3ccccc3)cc2)nc1N1CCOCC1 [MTR-0124, 1-{4-[5-Ethoxy-4-(morpholine-4-carbonyl)-6-morpholin-4-yl-pyrimidin-2-yl]-phenyl}-3-phenyl-urea]
85.8 | COc1cnc(-c2ccc(NC(=O)Nc3ccccc3)cc2)nc1N1CCOCC1 [MTR-0128, 1-[4-(5-Methoxy-4-morpholin-4-yl-pyrimidin-2-yl)-phenyl]-3-phenyl-urea]
83 | COc1cnc(-c2ccc(NC(=O)Nc3ccc(F)cc3)cc2)nc1N1CCOCC1 [MTR-0152, 1-(4-Fluoro-phenyl)-3-[4-(5-methoxy-4-morpholin-4-yl-pyrimidin-2-yl)-phenyl]-urea]
101 | COc1cnc(-c2ccc(NC(=O)Nc3ccc(F)c(F)c3)cc2)nc1N1CCOCC1 [MTR-0165, 1-(3,4-Difluoro-phenyl)-3-[4-(5-methoxy-4-morpholin-4-yl-pyrimidin-2-yl)-phenyl]-urea]
82.1 | CSc1c(N2CCOCC2)nc(-c2ccc(NC(=O)Nc3ccccc3)cc2)nc1N1CCN(S(C)(=O)=O)CC1 [MTR-0173, 1-{4-[4-(4-Methanesulfonyl-piperazin-1-yl)-5-methylsulfanyl-6-morpholin-4-yl-pyrimidin-2-yl]-phenyl}-3-phenyl-urea]
59.8 | CSc1c(Cl)nc(-c2ccc(NC(=O)Nc3cccnc3)cc2)nc1N1CCOCC1 [MTR-0197, 1-[4-(4-Chloro-5-methylsulfanyl-6-morpholin-4-yl-pyrimidin-2-yl)-phenyl]-3-pyridin-3-yl-urea]
42.6 | CCOC(=O)c1nc(-c2ccc(NC(=O)Nc3cccnc3)cc2)nc(N2CCOCC2)c1OCC [MTR-0205, 5-Ethoxy-6-morpholin-4-yl-2-[4-(3-pyridin-3-yl-ureido)-phenyl]-pyrimidine-4-carboxylic acid ethyl ester]
42 | CSc1c(Cl)nc(-c2ccc(NC(=O)Nc3ccc(N4CCOCC4)c(F)c3)cc2)nc1N1CCOCC1 [MTR-0211, 1-[4-(4-Chloro-5-methylsulfanyl-6-morpholin-4-yl-pyrimidin-2-yl)-phenyl]-3-(3-fluoro-4-morpholin-4-yl-phenyl)-urea]
53.6 | CSc1c(Cl)nc(-c2ccc(NC(=O)Nc3ccc(N4CCN(C)CC4)cc3)cc2)nc1N1CCOCC1 [MTR-0215, 1-[4-(4-Chloro-5-methylsulfanyl-6-morpholin-4-yl-pyrimidin-2-yl)-phenyl]-3-[4-(4-methyl-piperazin-1-yl)-phenyl]-urea]
44.3 | CCOC(=O)c1nc(-c2ccc(NC(=O)Nc3ccc(N4CCOCC4=O)cc3)cc2)nc(N2CCOCC2)c1OCC [MTR-0222, 5-Ethoxy-6-morpholin-4-yl-2-(4-{3-[4-(3-oxo-morpholin-4-yl)-phenyl]-ureido}-phenyl)-pyrimidine-4-carboxylic acid ethyl ester]
43.8 | CSc1cnc(-c2ccc(NC(=O)Nc3cccnc3)cc2)nc1N1CCOCC1 [MTR-0225, 1-[4-(5-Methylsulfanyl-4-morpholin-4-yl-pyrimidin-2-yl)-phenyl]-3-pyridin-3-yl-urea]
45.7 | CSc1cnc(-c2ccc(NC(=O)Nc3ccc(N4CCOCC4)c(F)c3)cc2)nc1N1CCOCC1 [MTR-0226, 1-(3-Fluoro-4-morpholin-4-yl-phenyl)-3-[4-(5-methylsulfanyl-4-morpholin-4-yl-pyrimidin-2-yl)-phenyl]-urea]
87 | CSc1cnc(-c2ccc(NC(=O)Nc3ccc(N4CCOCC4=O)cc3)cc2)nc1N1CCOCC1 [MTR-0227, 1-[4-(5-Methylsulfanyl-4-morpholin-4-yl-pyrimidin-2-yl)-phenyl]-3-[4-(3-oxo-morpholin-4-yl)-phenyl]-urea]
74.4 | COc1cnc(-c2ccc(NC(=O)Nc3cccnc3)cc2)nc1N1CCOCC1 [MTR-0228, 1-[4-(5-Methoxy-4-morpholin-4-yl-pyrimidin-2-yl)-phenyl]-3-pyridin-3-yl-urea]
61.2 | CSc1c(Cl)nc(-c2ccc(NC(=O)Nc3ccc(N4CCN(C)CC4)nc3)cc2)nc1N1CCOCC1 [MTR-0236, 1-[4-(4-Chloro-5-methylsulfanyl-6-morpholin-4-yl-pyrimidin-2-yl)-phenyl]-3-[6-(4-methyl-piperazin-1-yl)-pyridin-3-yl]-urea]
94.8 | COc1cnc(-c2ccc(NC(=O)Nc3ccc(N4CCOCC4=O)cc3)cc2)nc1N1CCOCC1 [MTR-0241, 1-[4-(5-Methoxy-4-morpholin-4-yl-pyrimidin-2-yl)-phenyl]-3-[4-(3-oxo-morpholin-4-yl)-phenyl]-urea]
96.3 | COc1cnc(-c2ccc(NC(=O)Nc3ccc(N4CCOCC4)c(F)c3)cc2)nc1N1CCOCC1 [MTR-0242, 1-(3-Fluoro-4-morpholin-4-yl-phenyl)-3-[4-(5-methoxy-4-morpholin-4-yl-pyrimidin-2-yl)-phenyl]-urea]
60 | CCOC(=O)c1nc(-c2ccc(NC(=O)Nc3ccc(C(N)=O)cc3)cc2)nc(N2CCOCC2)c1OCC [MTR-0244, 2-{4-[3-(4-Carbamoyl-phenyl)-ureido]-phenyl}-5-ethoxy-6-morpholin-4-yl-pyrimidine-4-carboxylic acid ethyl ester]
45.8 | CSc1cnc(-c2ccc(NC(=O)Nc3ccc(N4CCOCC4)cc3)cc2)nc1N1CCOCC1 [MTR-0248, 1-[4-(5-Methylsulfanyl-4-morpholin-4-yl-pyrimidin-2-yl)-phenyl]-3-(4-morpholin-4-yl-phenyl)-urea]
95.5 | CSc1c(Cl)nc(-c2ccc(NC(=O)Nc3ccc(C(N)=O)cc3)cc2)nc1N1CCOCC1 [MTR-0257, 4-{3-[4-(4-Chloro-5-methylsulfanyl-6-morpholin-4-yl-pyrimidin-2-yl)-phenyl]-ureido}-benzamide]
58.4 | COc1cnc(-c2ccc(NC(=O)Nc3ccc(N4CCOCC4)cc3)cc2)nc1N1CCOCC1 [MTR-0261, 1-[4-(5-Methoxy-4-morpholin-4-yl-pyrimidin-2-yl)-phenyl]-3-(4-morpholin-4-yl-phenyl)-urea]
56.3 | COc1cnc(-c2ccc(NC(=O)Nc3ccc(N4CCSCC4)cc3)cc2)nc1N1CCOCC1 [MTR-0262, 1-[4-(5-Methoxy-4-morpholin-4-yl-pyrimidin-2-yl)-phenyl]-3-(4-thiomorpholin-4-yl-phenyl)-urea]
